Laboratory results: PMC11154727, “Systematic Studies on the Anti-SARS-CoV-2 Mechanisms of Tea Polyphenol-Related Natural Products” (ACS Omega, 2024)
Where two headings read alike, the source gives them in different places.

Experiments:
[1] = target: T1, RBD/ACE2 interaction (UniProt P0DTC2+Q9BYF1, L452R/T478K); conditions: read-out: IC50 RBD/ACE2
[2] = test system: UK B.1.1.7 N501Y Alpha SARS-CoV-2; assay type: cell-based; conditions: read-out: EC50 α strain
[3] = test system: Brazil P.1 Gamma mutant SARS-CoV-2; assay type: cell-based; conditions: read-out: EC50 γ strain
[4] = target: T1, RBD/ACE2 interaction; assay: cell-based

## proanthocyanidin
[1]
  IC50: 12.4 ± 1.1 µM

## O=C(O[C@@H]1Cc2c(O)cc(O)cc2O[C@@H]1c1cc(O)c(=O)c2c(O)c(O)cc([C@H]3Oc4cc(O)cc(O)c4C[C@H]3OC(=O)c3cc(O)c(O)c(O)c3)c2c1)c1cc(O)c(O)c(O)c1 [TF3, theaflavin-3,3′-digallate]
[2]
  EC50: 0.5 µM
[3]
  EC50: 0.4 ± 0.2 µM

## O=c1c(O)cc([C@H]2Oc3cc(O)cc(O)c3C[C@H]2O)cc2c([C@H]3Oc4cc(O)cc(O)c4C[C@H]3O)cc(O)c(O)c12 [theaflavin]
[4]
  IC50: 12.3 ± 1.1 µM
